According to patent US6867284B1, “Peptide inhibitors of hepatitis C virus NS3 protease” (Istituto di Ricerche di Biologia Molecolare P. Angeletti …, priority 1998, dated 2005):

Molecular target: T1, HCV NS3 protease (Hepatitis C virus genotype 1b, UniProt P26663)
T1 construct: an NS3/4A complex comprising the NS3 protease domain
Test: Inhibition of NS3 protease (HPLC cleavage assay, NS3/4A complex with Pep4AK, substrate peptide 4AB)
Assay type: biochemical
Conditions: Table 2 tetrapeptides and tripeptides; read-out: IC50
Experimental: Buffer solutions containing 80 μM Pep4AK were preincubated for 10 minutes with 10-200 nM protease and reactions were started by addition of substrate. Six duplicate data points at different substrate concentrations were used to calculate kinetic parameters. Incubation times were chosen in order to obtain <7% substrate conversion and reactions were stopped by addition of 40 μl 1% TFA. Cleavage of peptide substrates was determined by HPLC using a Merck-Hitachi chromatograph equipped with an autosampler. 80 μl samples were injected on a Lichrospher C18 reversed phase cartridge column (4×74 mm, 5 μm, Merck) and fragments were separated using a 10-40% acetonitrile gradient a 5%/min using a flow rate of 2.5 ml/min. Peak detection was accomplished by monitoring both the absorbance at 220 nm and tyrosine fluorescence (λex=260 nm, λem=305 nm). Cleavage products were quantitated by integration of chromatograms with respect to appropriate standards. Kinetic parameters were calculated from nonlinear least-squares fit of initial rates as a function of substrate concentration with the help of a Kaleidagraph software, assuming Michaelis-Menten kinetics.
Ki values of peptide inhibitors were calculated from substrate titration experiments performed in the presence of increasing amounts of inhibitor. Experimental data sets were simultaneously fitted to eq.1 using a multicurve fit macro with the help of a Sigmaplot software: V=(VmaxS)/(Km(1+[…])+S); (eq.1)
Alternatively, Ki values were derived from IC50 values, calculated using a four-parameter logistic function, according to eq.2: IC50−(1+S/Km)Ki (eq.2)

T1 sequence (P26663 1027-1208, other chains not shown): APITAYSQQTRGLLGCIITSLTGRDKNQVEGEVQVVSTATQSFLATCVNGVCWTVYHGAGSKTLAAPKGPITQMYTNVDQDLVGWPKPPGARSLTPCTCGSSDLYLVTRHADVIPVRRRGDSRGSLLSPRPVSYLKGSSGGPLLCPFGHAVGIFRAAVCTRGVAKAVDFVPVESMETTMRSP

Row | SMILES | IC50 [nM]
1 | CC(=O)N[C@H](C(=O)N[C@@H](CCC(=O)O)C(=O)N[C@@H](CC1CCCCC1)C(=O)NC(CC(F)F)C(=O)C(=O)O)C(c1ccccc1)c1ccccc1 (some centres unmarked) [Compound 2a] | 10000
2 | CC(=O)N[C@H](C(=O)N[C@@H](CCC(=O)O)C(=O)N[C@@H](CC1CCCCC1)C(=O)NC(CC(F)F)C(=O)C(=O)NCc1ccccc1)C(c1ccccc1)c1ccccc1 (some centres unmarked) [Compound 2b] | 11400
3 | CC(=O)N[C@H]1Cc2cccc(c2)Oc2ccc(cc2)C[C@@H](C(=O)NC(CC(F)F)C(=O)C(=O)O)NC(=O)[C@H](CCC(=O)O)NC1=O (some centres unmarked) [Compound 2c] | 47000
4 | CCC(C)[C@H](NC(=O)OCc1ccccc1)C(=O)N[C@H](C(=O)NC(CC(F)F)C(=O)C(=O)O)C(C)C (some centres unmarked) [Compound 3a] | 16000
5 | CCC(C)[C@H](NC(=O)OCc1ccccc1)C(=O)N[C@@H](CC1CCCCC1)C(=O)NC(CC(F)F)C(=O)C(=O)O (some centres unmarked) [Compound 3b] | 1400
6 | CCC(C)[C@H](NC(=O)OCc1ccccc1)C(=O)N[C@@H](CC(C)C)C(=O)NC(CC(F)F)C(=O)C(=O)O (some centres unmarked) [Compound 3c] | 1400
7 | CCC(C)[C@H](NC(=O)OCc1ccccc1)C(=O)N[C@@H](CCC(=O)O)C(=O)NC(CC(F)F)C(=O)C(=O)O (some centres unmarked) [Compound 3d] | 9300
8 | CCC(C)[C@H](NC(=O)OCc1ccccc1)C(=O)N[C@@H](CC)C(=O)NC(CC(F)F)C(=O)C(=O)O (some centres unmarked) [Compound 3e] | 3000
9 | CCC(C)[C@H](NC(=O)OCc1ccccc1)C(=O)N[C@@H](Cc1ccccc1)C(=O)NC(CC(F)F)C(=O)C(=O)O (some centres unmarked) [Compound 3f] | 3000
10 | CCC(C)[C@H](NC(=O)OCc1ccccc1)C(=O)N[C@@H](C)C(=O)NC(CC(F)F)C(=O)C(=O)O (some centres unmarked) [Compound 3g] | 16000
11 | CCC(C)[C@H](NC(=O)NCc1ccccc1)C(=O)N[C@@H](CC(C)C)C(=O)NC(CC(F)F)C(=O)C(=O)O (some centres unmarked) [Compound 4a] | 6500
12 | CCC(C)[C@H](NC(=O)NCc1cc(C(F)(F)F)cc(C(F)(F)F)c1)C(=O)N[C@@H](CC(C)C)C(=O)NC(CC(F)F)C(=O)C(=O)O (some centres unmarked) [Compound 4b] | 39000
13 | CCC(C)[C@H](NC(=O)OCc1ccc(C(=O)OC)cc1)C(=O)N[C@@H](CC(C)C)C(=O)NC(CC(F)F)C(=O)C(=O)O (some centres unmarked) [Compound 4c] | 1700
14 | CCC(C)[C@H](NC(=O)OCc1ccc(C(=O)O)cc1)C(=O)N[C@@H](CC(C)C)C(=O)NC(CC(F)F)C(=O)C(=O)O (some centres unmarked) [Compound 4d] | 440
15 | CCC(C)[C@H](NC(=O)OCC1c2ccccc2-c2ccccc21)C(=O)N[C@@H](CC(C)C)C(=O)NC(CC(F)F)C(=O)C(=O)O (some centres unmarked) [Compound 4e] | 7800
16 | CCC(C)[C@H](NC(=O)OC(C)(C)C)C(=O)N[C@@H](CC(C)C)C(=O)NC(CC(F)F)C(=O)C(=O)O (some centres unmarked) [Compound 4f] | 1000
17 | CC[C@@H](C)[C@H](NC(=O)OC(C)(C)C)C(=O)N[C@@H](CC(C)C)C(=O)NC(CC(F)F)C(=O)C(=O)O (some centres unmarked) [Compound 5a] | 700
18 | CC(C)C[C@H](NC(=O)OC(C)(C)C)C(=O)N[C@@H](CC(C)C)C(=O)NC(CC(F)F)C(=O)C(=O)O (some centres unmarked) [Compound 5b] | 1200
19 | CC(C)C[C@H](NC(=O)[C@H](Cc1ccccc1)NC(=O)OC(C)(C)C)C(=O)NC(CC(F)F)C(=O)C(=O)O (some centres unmarked) [Compound 5c] | 1500

Row | SMILES | IC50 [nM]
20 | CC(C)C[C@H](NC(=O)[C@@H](NC(=O)OC(C)(C)C)C(C)C)C(=O)NC(CC(F)F)C(=O)C(=O)O (some centres unmarked) [Compound 5d] | 500
21 | CC(C)C[C@H](NC(=O)[C@H](C)NC(=O)OC(C)(C)C)C(=O)NC(CC(F)F)C(=O)C(=O)O (some centres unmarked) [Compound 5f] | 8900
22 | CCCC[C@H](NC(=O)OC(C)(C)C)C(=O)N[C@@H](CC(C)C)C(=O)NC(CC(F)F)C(=O)C(=O)O (some centres unmarked) [Compound 5g] | 1200
23 | CCC[C@H](NC(=O)OC(C)(C)C)C(=O)N[C@@H](CC(C)C)C(=O)NC(CC(F)F)C(=O)C(=O)O (some centres unmarked) [Compound 5h] | 1500
24 | CC(C)C[C@H](NC(=O)[C@H](CCC(=O)OCc1ccccc1)NC(=O)OC(C)(C)C)C(=O)NC(CC(F)F)C(=O)C(=O)O (some centres unmarked) [Compound 5i] | 5800
25 | CC(C)C[C@H](NC(=O)[C@H](CCC(=O)O)NC(=O)OC(C)(C)C)C(=O)NC(CC(F)F)C(=O)C(=O)O (some centres unmarked) [Compound 5j] | 330
26 | CC(C)C[C@H](NC(=O)[C@H](CCC(N)=O)NC(=O)OC(C)(C)C)C(=O)NC(CC(F)F)C(=O)C(=O)O (some centres unmarked) [Compound 5k] | 2100
27 | CC(C)C[C@H](NC(=O)[C@H](CC(=O)OCc1ccccc1)NC(=O)OC(C)(C)C)C(=O)NC(CC(F)F)C(=O)C(=O)O (some centres unmarked) [Compound 5l] | 3500
28 | CC(C)C[C@H](NC(=O)[C@H](CC(=O)O)NC(=O)OC(C)(C)C)C(=O)NC(CC(F)F)C(=O)C(=O)O (some centres unmarked) [Compound 5m] | 1600
29 | CC(C)C[C@H](NC(=O)[C@@H](NC(=O)OC(C)(C)C)C(C)(C)C)C(=O)NC(CC(F)F)C(=O)C(=O)O (some centres unmarked) [Compound 5n] | 720
30 | CC(C)(C)OC(=O)N[C@@H](CCC(=O)O)C(=O)N[C@@H](CC(F)F)C(=O)NC(CC(F)F)C(=O)C(=O)O (some centres unmarked) [Compound 5o] | 300
31 | CC(C)C[C@H](NC(=O)[C@H](C/C=C/c1ccccc1)NC(=O)OC(C)(C)C)C(=O)NC(CC(F)F)C(=O)C(=O)O (some centres unmarked) [Compound 5p] | 2400
32 | CC(C)CC[C@H](NC(=O)OC(C)(C)C)C(=O)N[C@@H](CC(C)C)C(=O)NC(CC(F)F)C(=O)C(=O)O (some centres unmarked) [Compound 5q] | 1600
33 | CC(C)C[C@H](NC(=O)[C@H](Cc1ccc(Cl)c(Cl)c1)NC(=O)OC(C)(C)C)C(=O)NC(CC(F)F)C(=O)C(=O)O (some centres unmarked) [Compound 5r] | 5800
34 | CC(C)C[C@H](NC(=O)[C@H](Cc1cccs1)NC(=O)OC(C)(C)C)C(=O)NC(CC(F)F)C(=O)C(=O)O (some centres unmarked) [Compound 5s] | 3800
35 | CC(C)C[C@H](NC(=O)[C@H](Cc1cccc(Br)c1)NC(=O)OC(C)(C)C)C(=O)NC(CC(F)F)C(=O)C(=O)O (some centres unmarked) [Compound 5t] | 2500
36 | CC(C)C[C@H](NC(=O)[C@@H](NC(=O)OC(C)(C)C)C1CCCC1)C(=O)NC(CC(F)F)C(=O)C(=O)O (some centres unmarked) [Compound 5u] | 400
37 | CC(C)COC(=O)N[C@@H](CCC(=O)O)C(=O)N[C@@H](CC(C)C)C(=O)NC(C=O)CC(F)F (some centres unmarked) [Compound 6a] | 26000
38 | CC(C)C[C@H](NC(=O)[C@@H](NC(=O)OCc1ccccc1)C(C)C)C(=O)NC(C=O)CC(F)F (some centres unmarked) [Compound 6b] | 50000
